The results in this text go back to patent US20240059703A1 (AMGEN INC., priority 2021, published 2024).

One experiment addresses KRAS G12C (Homo sapiens (Human), UniProt P01116, C118A/G12C). The experiment in a line: 2 h coupled exchange assay. It is filed as biochemical. As for the experimental part:
The term “2 h coupled exchange assay” or “20 h coupled exchange assay” as used herein refers to the assay described in the Section entitled “BIOLOGICAL EVALUATION.”

The test system of experiment [1] is A549 (human lung carcinoma) cells. Kind of experiment: Cell Viability Assay (CellTiter-Glo), A549. It is filed as cell-based. Put shortly: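 Seeding at 1.67E+04 cells/mL is followed by overnight attachment at 37° C., 5% CO2. Serially diluted compound is added for 72 h. Viability is read by CellTiter-Glo luminescence, scaled to DMSO and fitted (4-parameter logistic) to give IC50.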
Background: ATP-based viability assays read luminescence as a measure of living cells.

Experiment [2] concerns MIA PaCa-2 (human pancreatic carcinoma) cells. The experiment in a line: Cell Viability Assay (CellTiter-Glo), MIA PaCa-2. It is filed as cell-based. As for the experimental part:
Serially-diluted compound or DMSO was added to the cells, and plates were incubated at 37° C., 5% CO2 for 72 h. Cell viability was measured using a CellTiter-Glo® Luminescent Cell Viability Assay kit (Promega) according to the manufacturer's protocol. The luminescence signal of treated samples was normalized to DMSO control, and data were analyzed using a 4-parameter logistic model to calculate IC50 values.

Setting [3] is: Avg 2 h Coupled exchange IC50, 2 h compound pre-incubation, SOS-mediated nucleotide exchange.
Setting [4] is: Avg 2 h Coupled exchange IC50, 2 h compound pre-incubation.

Where two headings read alike, the source gives them in different places. Some results are limits rather than exact numbers.

KRAS G12C, sequence (P01116 other isoform, or with tags, fused parts or gaps G12C/C118A): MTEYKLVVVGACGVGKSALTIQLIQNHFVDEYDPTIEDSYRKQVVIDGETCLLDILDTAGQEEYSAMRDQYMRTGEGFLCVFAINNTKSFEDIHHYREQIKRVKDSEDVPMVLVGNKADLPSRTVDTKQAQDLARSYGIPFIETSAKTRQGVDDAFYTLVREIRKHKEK

As for `C=CC(=O)N1CC2(CCN(c3nc4c(c(-c5c(C)ccc6[nH]ncc56)c3C#N)CCC43CC3)C2)C1` [Example 13-101, 2-(2-acryloyl-2,6-diazaspiro[3.4]octan-6-yl)-4-(5-methyl-1H-indazol-4-yl)-5,6-dihydrospiro[cyclopenta[b]pyridine-7,1′-cyclopropane]-3-carbonitrile], the IC50 (commonly the midpoint of a concentration-inhibition curve) is 102 nM on KRAS G12C (setting [3]); over 5000 nM in experiment [1] (Homo sapiens, A549, 72 h); 1370 nM in experiment [2] (Homo sapiens, MIA PaCa-2, 72 h).
For `C=CC(=O)N1CC2(CCN(c3nc4c(c(-c5c(C)ccc6cnn(C)c56)c3C#N)CC(C)(C)C4)C2)C1` [Example 13-16, 4-(1,6-dimethyl-1H-indazol-7-yl)-6,6-dimethyl-2-(2-(2-propenoyl)-2,6-diazaspiro[3.4]octan-6-yl)-6,7-dihydro-5H-cyclopenta[b]pyridine-3-carbonitrile] the same measures were 82 nM, over 5000 nM and 393 nM.
For the compound `C=CC(=O)N1CC2(CCN(c3nc4c(c(-c5cc(O)cc6cccnc56)c3C#N)C[C@H]3C[C@@H]4C3(C)C)C2)C1` (single isomer, unassigned) [Example 2-45], the IC50 against KRAS G12C (setting [3]) is 77 nM; in experiment [1] (Homo sapiens, A549, 72 h) it was over 5000 nM; in experiment [2] (Homo sapiens, MIA PaCa-2, 72 h), over 5000 nM.
Consider `C=CC(=O)N1CC2(CCN(c3nc4c(c(-c5c(C)ccc6cnn(C)c56)c3C)CCN(C3(C)COC3)C4)C2)C1` (atropisomer, axis not shown; (P)) [Example 36-3, (P)-1-(6-(4-(1,6-dimethyl-1H-indazol-7-yl)-3-methyl-7-(3-methyl-3-oxetanyl)-5,6,7,8-tetrahydro-1,7-naphthyridin-2-yl)-2,6-diazaspiro[3.4]octan-2-yl)-2-propen-1-one], for which the half-maximal inhibitory concentration (IC50) on KRAS G12C (read-out: Avg 2 h Coupled exchange IC50, 2 h compound pre-incubation) is 65300 nM; in experiment [1] (72 h), 18800 nM; in experiment [2] (72 h), 11000 nM.
Regarding `C=CC(=O)N1CC2(CCN(c3nc(-c4c(C)ccc5[nH]ncc45)c4ccc(OC)cc4n3)C2)C1` [Example 1-41, 1-(6-(7-methoxy-4-(5-methyl-1H-indazol-4-yl)-2-quinazolinyl)-2,6-diazaspiro[3.4]octan-2-yl)-2-propen-1-one], the IC50 on KRAS G12C (setting [3]) is 882 nM; in experiment [1] (Homo sapiens, A549, 72 h), over 5000 nM; in experiment [2] (Homo sapiens, MIA PaCa-2, 72 h), over 5000 nM.
Take `C=CC(=O)N1CC2(CCN(c3nc4c(c(-c5ncccc5C)c3C#N)CCC(c3scnc3C)=C4)C2)C1` [Example 23-1, 4-(3-Methyl-2-pyridinyl)-7-(4-methyl-1,3-thiazol-5-yl)-2-(2-(2-propenoyl)-2,6-diazaspiro[3.4]octan-6-yl)-5,6-dihydro-3-quinolinecarbonitrile]: the IC50 is 178 nM against KRAS G12C (setting [4]); over 5000 nM in experiment [1] (Homo sapiens, A549, 72 h); 507 nM in experiment [2] (Homo sapiens, MIA PaCa-2, 72 h).
For `C=CC(=O)N1CC2(CCN(c3nc4c(c(-c5c(C)ccc6[nH]ncc56)c3C)COC(C)(C)C4)C2)C1` (single isomer, unassigned) [Example 14-33, (P)-1-(6-(3,7,7-trimethyl-4-(5-methyl-1H-indazol-4-yl)-7,8-dihydro-5H-pyrano[4,3-b]pyridin-2-yl)-2,6-diazaspiro[3.4]octan-2-yl)-2-propen-1-one], in that order: 44 nM, over 5000 nM and 32 nM.
On to `C=CC(=O)N1CC2(CCN(c3nc4c(c(-c5cc(O)ccc5Cl)c3C#N)C[C@H]3C[C@@H]4C3(C)C)C2)C1` (single isomer, unassigned) [Example 2-74], for which the IC50 against KRAS G12C (setting [3]) is 21 nM; in experiment [1] (Homo sapiens, A549, 72 h), over 5000 nM; in experiment [2] (Homo sapiens, MIA PaCa-2, 72 h) it was 202 nM.
For `C=CC(=O)N1CC2(CCN(c3nc4c(c(-c5c(C)ccc6cnn(C)c56)c3C#N)[C@@H]3CC[C@H]4C3)C2)C1` (single isomer, unassigned) [Example 14-15], in that order: 49 nM, over 5000 nM and 68 nM.
Consider `C=CC(=O)N1CC2(CCN(c3nc4cc(C5CC5)ccc4c(-c4c(C)ccc5[nH]ncc45)c3C#N)C2)C1` [Example 14-19, 7-cyclopropyl-4-(5-methyl-1H-indazol-4-yl)-2-(2-(2-propenoyl)-2,6-diazaspiro[3.4]octan-6-yl)-3-quinolinecarbonitrile], for which the half-inhibitory concentration (IC50) against KRAS G12C (setting [4]) was 130 nM; in experiment [1] (Homo sapiens, A549, 72 h), over 5000 nM; in experiment [2] (Homo sapiens, MIA PaCa-2, 72 h), 1690 nM.
For `C=CC(=O)N1CC2(CCN(c3nc4c(c(-c5cc(C(F)F)ccc5Cl)c3C#N)CCN(c3scnc3C)C4)C2)C1` [Example 23-61, 4-(2-chloro-5-(difluoromethyl)phenyl)-7-(4-methyl-1,3-thiazol-5-yl)-2-(2-(2-propenoyl)-2,6-diazaspiro[3.4]octan-6-yl)-5,6,7,8-tetrahydro-1,7-naphthyridine-3-carbonitrile] the same measures were 103 nM, 12400 nM and 1910 nM.
For `C=CC(=O)N1CC2(CCN(c3nc4c(c(-c5ccccc5F)c3C#N)CCN(c3ccnn3C)C4)C2)C1` [Example 21-2, 4-(2-fluorophenyl)-7-(1-methyl-1H-pyrazol-5-yl)-2-(2-(2-propenoyl)-2,6-diazaspiro[3.4]octan-6-yl)-5,6,7,8-tetrahydro-1,7-naphthyridine-3-carbonitrile], in that order: 189 nM, over 5000 nM and 805 nM.
For `C=CC(=O)N1CC2(CCN(c3nc4c(c(-c5ncccc5F)c3C#N)CCC(c3c(C)cnn3C)=C4)C2)C1` [Example 23-58, 7-(1,4-dimethyl-1H-pyrazol-5-yl)-4-(3-fluoro-2-pyridinyl)-2-(2-(2-propenoyl)-2,6-diazaspiro[3.4]octan-6-yl)-5,6-dihydro-3-quinolinecarbonitrile], in that order: 841 nM, 10700 nM and 2060 nM.
On to `C=CC(=O)N1CC2(CCN(c3nc4c(c(-c5c(C)ccc6cnn(C)c56)c3C#N)CCC(C)(C)C4)C2)C1` (single isomer, unassigned) [Example 13-145, 4-(1,6-dimethyl-1H-indazol-7-yl)-7,7-dimethyl-2-(2-(2-propenoyl)-2,6-diazaspiro[3.4]octan-6-yl)-5,6,7,8-tetrahydro-3-quinolinecarbonitrile], for which the IC50 against KRAS G12C (setting [3]) is 31 nM; in experiment [1] (Homo sapiens, A549, 72 h), over 5000 nM; in experiment [2] (72 h), 208 nM.
In the case of `C=CC(=O)N1CC2(CCN(c3nc4c(c(-c5cc(O)cnc5Cl)c3C#N)C[C@H]3C[C@@H]4C3(C)C)C2)C1` [Example 12-35, (1R,9R)-6-(2-chloro-5-hydroxy-3-pyridinyl)-10,10-dimethyl-4-(2-(2-propenoyl)-2,6-diazaspiro[3.4]octan-6-yl)-3-azatricyclo[7.1.1.0^2,7] undeca-2,4,6-triene-5-carbonitrile], the IC50 against KRAS G12C (setting [3]) is 44 nM; in experiment [1] (Homo sapiens, A549, 72 h) it was over 5000 nM; in experiment [2] (Homo sapiens, MIA PaCa-2, 72 h), 1090 nM.
For the compound `C=CC(=O)N1CC2(CCN(c3nc4cc(-n5cncc5C)ccc4c(-c4ccccc4F)c3C#N)C2)C1` [Example 17-6, 4-(2-fluorophenyl)-7-(5-methyl-1H-imidazol-1-yl)-2-(2-(2-propenoyl)-2,6-diazaspiro[3.4]octan-6-yl)-3-quinolinecarbonitrile], the half-inhibitory concentration (IC50) turned out to be 149 nM at KRAS G12C (setting [4]); 4370 nM in experiment [1] (Homo sapiens, A549, 72 h); 2190 nM in experiment [2] (Homo sapiens, MIA PaCa-2, 72 h).
For `C=CC(=O)N1CC2(CCN(c3nc4c(c(-c5ccccc5F)c3C#N)CCC(c3scnc3C)=C4)C2)C1` [Example 23-7, 4-(2-fluorophenyl)-7-(4-methyl-1,3-thiazol-5-yl)-2-(2-(2-propenoyl)-2,6-diazaspiro[3.4]octan-6-yl)-5,6-dihydro-3-quinolinecarbonitrile], in that order: 72 nM, 3690 nM and 918 nM.
With `C=CC(=O)N1CC2(CCN(c3nc4cc(-c5scnc5C)cnc4c(-c4cccc(O)c4)c3C#N)C2)C1` [Example 20-21, 4-(3-hydroxyphenyl)-7-(4-methyl-1,3-thiazol-5-yl)-2-(2-(2-propenoyl)-2,6-diazaspiro[3.4]octan-6-yl)-1,5-naphthyridine-3-carbonitrile], the IC50 amounted to 958 nM on KRAS G12C (setting [4]); 10800 nM in experiment [1] (Homo sapiens, A549, 72 h); 4970 nM in experiment [2] (Homo sapiens, MIA PaCa-2, 72 h).
As to `C=CC(=O)N1CC2(CCN(c3nc4c(c(-c5ccc(F)c6sc(N)nc56)c3C)CCC(C)(C)C4)C2)C1` (single isomer, unassigned) [Example 2-17], the IC50 against KRAS G12C (setting [3]) is 64 nM; in experiment [1] (Homo sapiens, A549, 72 h), over 5000 nM; in experiment [2] (Homo sapiens, MIA PaCa-2, 72 h), 155 nM.
Take `C=CC(=O)N1CC2(CCN(c3nc4c(c(-c5ccccc5F)c3C#N)CCN(C3CC3)C4)C2)C1` [Example 21-37, 7-cyclopropyl-4-(2-fluorophenyl)-2-(2-(2-propenoyl)-2,6-diazaspiro[3.4]octan-6-yl)-5,6,7,8-tetrahydro-1,7-naphthyridine-3-carbonitrile]: the IC50 was 90 nM against KRAS G12C (setting [4]); over 5000 nM in experiment [1] (Homo sapiens, A549, 72 h); 461 nM in experiment [2] (Homo sapiens, MIA PaCa-2, 72 h).
For `C=CC(=O)N1CC2(CCN(c3nc4c(c(-c5ccccc5Cl)c3C#N)CCC(c3scnc3C)=C4)C2)C1` [Example 23-19, 4-(2-chlorophenyl)-7-(4-methyl-1,3-thiazol-5-yl)-2-(2-(2-propenoyl)-2,6-diazaspiro[3.4]octan-6-yl)-5,6-dihydro-3-quinolinecarbonitrile], the IC50 is 87 nM against KRAS G12C (setting [4]); 3290 nM in experiment [1] (Homo sapiens, A549, 72 h); 537 nM in experiment [2] (Homo sapiens, MIA PaCa-2, 72 h).
